Columns and labels:
Format in all cases: cell-based
BRAF V600E = target: T1, BRAF V600E (Homo sapiens, UniProt P15056, V600E); assay: BRAF HiBiT degradation assay, C-terminal HiBiT-tagged BRAF V600E A375 cells (clone 1F10), Nano-Glo HiBiT Lytic assay; conditions: for Dmax: A-375
T1 construct: endogenous C-terminal HiBiT fusion tag on BRAF V600E allele; endogenous in cells; host or cells: A375 clone 1F10 (CRISPR-Cas9 knock-in of the HiBiT tag; parental A375 from ATCC)
Summary of the method: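 Degradation is measured as loss of HiBiT signal from BRAF V600E tagged at its native locus in A375 cells. Doses span 1 μM to 0.01 nM in half-log steps, in duplicate. Percent remaining is calculated against DMSO controls after subtracting untagged A375 background, and curve fitting yields DC50 and observed Dmax.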

BRAF G466V = target: T2, BRAF G466V (Homo sapiens, UniProt P15056, G466V); assay: BRAF HiBiT degradation assay, C-terminal HiBiT-tagged BRAF G466V overexpressed in HCT-116 BRAF−/− cells (clone 8), Nano-Glo HiBiT Lytic assay
T2 construct: Horizon Discovery (HCT-116 BRAF−/− cells); host or cells: HCT-116 BRAF−/− cells, clone 8, lentiviral transduction
T2 sequence (P15056 whole entry G466V): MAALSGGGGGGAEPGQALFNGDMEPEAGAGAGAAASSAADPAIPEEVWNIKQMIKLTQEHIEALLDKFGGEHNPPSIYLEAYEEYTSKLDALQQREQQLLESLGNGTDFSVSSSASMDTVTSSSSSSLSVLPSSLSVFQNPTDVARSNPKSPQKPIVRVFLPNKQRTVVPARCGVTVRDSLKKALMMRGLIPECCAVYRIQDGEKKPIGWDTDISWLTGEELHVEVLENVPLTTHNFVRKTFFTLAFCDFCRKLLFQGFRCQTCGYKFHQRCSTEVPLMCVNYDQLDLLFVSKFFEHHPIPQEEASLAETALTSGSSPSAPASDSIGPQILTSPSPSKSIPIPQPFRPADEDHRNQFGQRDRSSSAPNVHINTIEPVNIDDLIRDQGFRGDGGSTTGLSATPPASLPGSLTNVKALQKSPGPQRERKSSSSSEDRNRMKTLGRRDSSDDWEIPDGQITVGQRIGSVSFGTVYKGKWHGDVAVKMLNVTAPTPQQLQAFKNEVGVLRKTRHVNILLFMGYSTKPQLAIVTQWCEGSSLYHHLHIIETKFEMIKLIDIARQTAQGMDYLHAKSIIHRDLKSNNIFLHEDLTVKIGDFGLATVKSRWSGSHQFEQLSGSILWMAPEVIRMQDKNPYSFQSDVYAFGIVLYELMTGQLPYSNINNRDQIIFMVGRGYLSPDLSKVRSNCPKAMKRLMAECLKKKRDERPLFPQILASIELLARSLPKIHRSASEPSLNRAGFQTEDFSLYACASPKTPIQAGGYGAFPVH
Summary of the method: (§1)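 First, the stable HiBiT-tagged cells were plated and incubated for 24 h. Next, compound was added in duplicate as an 11-point series with a 1 μM top concentration. Lytic detection followed, with DMSO-treated parental cells used for background. Finally, DC50 and Obs. Dmax relative to DMSO were derived from the % protein remaining curves.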

BRAF D594G = target: T3, BRAF D594G (Homo sapiens, UniProt P15056, D594G); assay: BRAF HiBiT degradation assay, C-terminal HiBiT-tagged BRAF D594G overexpressed in HCT-116 BRAF−/− cells (clone 63), Nano-Glo HiBiT Lytic assay
T3 construct: Horizon Discovery (HCT-116 BRAF−/− cells); host or cells: HCT-116 BRAF−/− cells, clone 63, lentiviral transduction
T3 sequence (P15056 whole entry D594G): as the sequence (P15056 whole entry G466V) above, with V466G, D594G counted along it
Summary of the method: as §1

BRAF G469A = target: T4, BRAF G469A (Homo sapiens, UniProt P15056, G469A); assay: BRAF HiBiT degradation assay, C-terminal HiBiT-tagged BRAF G469A overexpressed in HCT-116 BRAF−/− cells (clone 34), Nano-Glo HiBiT Lytic assay
T4 construct: Horizon Discovery (HCT-116 BRAF−/− cells); host or cells: HCT-116 BRAF−/− cells, clone 34, lentiviral transduction
T4 sequence (P15056 whole entry G469A): as the sequence (P15056 whole entry G466V) above, with V466G, G469A counted along it
Summary of the method: as §1

[1] = A375 (BRAF V600E, Class 1), DC50 at 50% degradation
[2] = A375 (BRAF V600E, Class 1), observed Dmax, % protein degraded relative to DMSO control
[3] = BRAF G466V (Class 3), HCT-116 BRAF−/− cells, DC50 at 50% degradation
[4] = BRAF G466V (Class 3), HCT-116 BRAF−/− cells, observed Dmax relative to DMSO control
[5] = BRAF D594G (Class 3), HCT-116 BRAF−/− cells, DC50 at 50% degradation
[6] = BRAF D594G (Class 3), HCT-116 BRAF−/− cells, observed Dmax relative to DMSO control
[7] = BRAF G469A (Class 2), HCT-116 BRAF−/− cells, DC50 at 50% degradation
[8] = BRAF G469A (Class 2), HCT-116 BRAF−/− cells, observed Dmax relative to DMSO control
[9] = A375 (BRAF V600E), DC50 at 50%: fitted conc. at Y=50
[10] = A375 (BRAF V600E), percentage protein degraded at maximal compound effect relative to DMSO
[11] = BRAF G466V, DC50 at 50%: fitted conc. at Y=50
[12] = HCT-116, BRAF G466V, percentage protein degraded at maximal compound effect relative to DMSO
[13] = BRAF D594G, DC50 at 50%: fitted conc. at Y=50
[14] = HCT-116, BRAF D594G, percentage protein degraded at maximal compound effect relative to DMSO
[15] = Class 2, BRAF G469A, DC50 at 50%: fitted conc. at Y=50
[16] = HCT-116, Class 2, BRAF G469A, percentage protein degraded at maximal compound effect relative to DMSO

T1 sequence (P15056 whole entry V600E, the tested form may be a part): as the sequence (P15056 whole entry G466V) above, with V466G, V600E counted along it

Structure (SMILES) | DC50 (BRAF V600E; [1]) | Dmax (BRAF V600E; [2]) | DC50 (BRAF G466V; [3]) | Dmax (BRAF G466V; [4]) | DC50 (BRAF D594G; [5]) | Dmax (BRAF D594G; [6]) | DC50 (BRAF G469A; [7]) | Dmax (BRAF G469A; [8]) | DC50 (BRAF V600E; [9]) | Dmax (BRAF V600E; [10]) | DC50 (BRAF G466V; [11]) | Dmax (BRAF G466V; [12]) | DC50 (BRAF D594G; [13]) | Dmax (BRAF D594G; [14]) | DC50 (BRAF G469A; [15]) | Dmax (BRAF G469A; [16])
CCN(C)S(=O)(=O)Nc1cc(Cl)cc(-c2cn(-c3ccc(N4CCN(CC5CCN(c6ccc(N7CCC(=O)NC7=O)cn6)CC5)CC4)cn3)nc2-c2ccncc2)c1F [Compound 313, 1-(6-{4-[(4-{6-[4-(5-chloro-3-{[ethyl(methyl)sulfamoyl]amino}-2-fluorophenyl)-3-(pyridin-4-yl)-1H-pyrazol-1-yl]pyridin-3-yl}piperazin-1-yl)methyl]piperidin-1-yl}pyridin-3-yl)-1,3-diazinane-2,4-dione] | 10 to 50 nM | > 70% | 10 to 50 nM | > 70% | < 10 nM | 30 to 70% | 50 to 500 nM | 30 to 70% | – | – | – | – | – | – | – | –
CCCS(=O)(=O)Nc1cccc(-c2nc(C(C)(C)C)sc2-c2ccnc(Nc3cnn(CC4CCN(CC5CCN(c6ccc7c(=O)n(C8CCC(=O)NC8=O)ccc7c6)CC5)CC4)c3)n2)c1F (racemic) [Compound 83, Rac-N-{3-[2-tert-butyl-5-(2-{[1-({1-[(1-{2-[(3R)-2,6-dioxopiperidin-3-yl]-1-oxo-1,2-dihydroisoquinolin-6-yl}piperidin-4-yl)methyl]piperidin-4-yl}methyl)-1H-pyrazol-4-yl]amino}pyrimidin-4-yl)-1,3-thiazol-4-yl]-2-fluorophenyl}propane-1-sulfonamide] | – | – | – | – | – | – | – | – | < 10 nM | > 70% | 50 to 500 nM | < 30% | 50 to 500 nM | < 30% | 50 to 500 nM | < 30%
CCN(C)S(=O)(=O)Nc1cc(Cl)cc(-c2cn(-c3ccc(N4CCN(CC5CCN(c6ccc([C@H]7CCC(=O)NC7=O)cn6)CC5)CC4)cc3)nc2-c2ccncc2)c1F [Compound 309, (3R)-3-(6-{4-[(4-{4-[4-(5-chloro-3-{[ethyl(methyl)sulfamoyl]amino}-2-fluorophenyl)-3-(pyridin-4-yl)-1H-pyrazol-1-yl]phenyl}piperazin-1-yl)methyl]piperidin-1-yl}pyridin-3-yl)piperidine-2,6-dione] | < 10 nM | > 70% | < 10 nM | > 70% | < 10 nM | 30 to 70% | 10 to 50 nM | > 70% | – | – | – | – | – | – | – | –
CCCS(=O)(=O)Nc1cccc(-c2nc(C(C)(C)C)sc2-c2ccnc(Nc3cnn(CC4CCN(C(=O)CN5CCc6cc(C7CCC(=O)NC7=O)ccc6C5)CC4)c3)n2)c1F (racemic) [Compound 119, Rac-N-[3-(2-tert-butyl-5-{2-[(1-{[1-(2-{6-[(3R)-2,6-dioxopiperidin-3-yl]-1,2,3,4-tetrahydroisoquinolin-2-yl}acetyl)piperidin-4-yl]methyl}-1H-pyrazol-4-yl)amino]pyrimidin-4-yl}-1,3-thiazol-4-yl)-2-fluorophenyl]propane-1-sulfonamide] | – | – | – | – | – | – | – | – | < 10 nM | > 70% | > 500 nM | < 30% | > 500 nM | 30 to 70% | > 500 nM | < 30%
O=C1CC[C@H](c2ccc(N3CCC(CN4CCN(c5ccc(-n6cc(-c7cc(Cl)cc(NS(=O)(=O)N8CCCC8)c7F)c(-c7ccncc7)n6)cn5)CC4)CC3)cc2)C(=O)N1 [Compound 351, N-{5-chloro-3-[1-(6-{4-[(1-{4-[(3R)-2,6-dioxopiperidin-3-yl]phenyl}piperidin-4-yl)methyl]piperazin-1-yl}pyridin-3-yl)-3-(pyridin-4-yl)-1H-pyrazol-4-yl]-2-fluorophenyl}pyrrolidine-1-sulfonamide] | < 10 nM | > 70% | < 10 nM | > 70% | < 10 nM | 30 to 70% | 10 to 50 nM | 30 to 70% | – | – | – | – | – | – | – | –
C[C@@H]1CN(c2ccc(-n3cc(-c4cc(Cl)cc(NS(=O)(=O)N5CC[C@@H](F)C5)c4F)c(-c4ccncc4)n3)nc2)CCN1CC1CCN(c2ccc(N3CCC(=O)NC3=O)cc2)CC1 [Compound 322, (3R)—N-[5-chloro-3-(1-{5-[(3R)-4-({1-[4-(2,4-dioxo-1,3-diazinan-1-yl)phenyl]piperidin-4-yl}methyl)-3-methylpiperazin-1-yl]pyridin-2-yl}-3-(pyridin-4-yl)-1H-pyrazol-4-yl)-2-fluorophenyl]-3-fluoropyrrolidine-1-sulfonamide] | < 10 nM | > 70% | < 10 nM | 30 to 70% | < 10 nM | 30 to 70% | 50 to 500 nM | 30 to 70% | – | – | – | – | – | – | – | –
O=C1CC[C@H](c2ccc(N3CCC(CN4CCN(c5ccc(-n6cc(-c7cc(F)cc(NS(=O)(=O)N8CCCC8)c7F)c(-c7ccncc7)n6)cc5)CC4)CC3)cc2)C(=O)N1 [Compound 299, N-{3-[1-(4-{4-[(1-{4-[(3R)-2,6-dioxopiperidin-3-yl]phenyl}piperidin-4-yl)methyl]piperazin-1-yl}phenyl)-3-(pyridin-4-yl)-1H-pyrazol-4-yl]-2,5-difluorophenyl}pyrrolidine-1-sulfonamide] | < 10 nM | > 70% | < 10 nM | > 70% | < 10 nM | 30 to 70% | 10 to 50 nM | 30 to 70% | – | – | – | – | – | – | – | –
CCN(C)S(=O)(=O)Nc1cccc(-c2nc(C)sc2-c2ccnc(Nc3ccc(N4CCN(C(=O)C5CCN(c6ccc(C7CCC(=O)NC7=O)cn6)CC5)CC4)cn3)n2)c1F (racemic) [Compound 40, Rac-(3S)-3-[6-(4-{4-[6-({4-[4-(3-{[ethyl(methyl)sulfamoyl]amino}-2-fluorophenyl)-2-methyl-1,3-thiazol-5-yl]pyrimidin-2-yl}amino)pyridin-3-yl]piperazine-1-carbonyl}piperidin-1-yl)pyridin-3-yl]piperidine-2,6-dione] | – | – | – | – | – | – | – | – | < 10 nM | > 70% | > 500 nM | 30 to 70% | > 500 nM | 30 to 70% | 10 to 50 nM | 30 to 70%
CCCS(=O)(=O)Nc1cccc(-c2nc(C(C)(C)C)sc2-c2ccnc(Nc3cnn(C4CCN(C(=O)[C@H]5CC[C@H](Oc6ccc(C7CCC(=O)NC7=O)cn6)CC5)CC4)c3)n2)c1F (mixture of isomers) [Compound 109, N-[3-(2-tert-butyl-5-{2-[(1-{1-[(1r,4r)-4-({5-[(3RS)-2,6-dioxopiperidin-3-yl]pyridin-2-yl}oxy)cyclohexanecarbonyl]piperidin-4-yl}-1H-pyrazol-4-yl)amino]pyrimidin-4-yl}-1,3-thiazol-4-yl)-2-fluorophenyl]propane-1-sulfonamide] | – | – | – | – | – | – | – | – | < 10 nM | > 70% | > 500 nM | < 30% | > 500 nM | < 30% | > 500 nM | < 30%
CCCS(=O)(=O)Nc1cccc(-c2nc(C(C)(C)C)sc2-c2ccnc(Nc3ccc(C4CCN(CC[C@H]5CCN(c6ccc(C7CCC(=O)NC7=O)cn6)C5)CC4)cc3)n2)c1F (mixture of isomers) [Compound 173, N-{3-[2-tert-butyl-5-(2-{[4-(1-{2-[(3S)-1-{5-[(3RS)-2,6-dioxopiperidin-3-yl]pyridin-2-yl}pyrrolidin-3-yl]ethyl}piperidin-4-yl)phenyl]amino}pyrimidin-4-yl)-1,3-thiazol-4-yl]-2-fluorophenyl}propane-1-sulfonamide] | – | – | – | – | – | – | – | – | 10 to 50 nM | > 70% | > 500 nM | 30 to 70% | > 500 nM | 30 to 70% | > 500 nM | < 30%

Reference: patent US20260317324A1, “BIFUNCTIONAL COMPOUNDS FOR DEGRADING BRAF VIA UBIQUITIN PROTEOSOME PATHWAY” (Nurix Therapeutics, Inc., priority 2023, published 2026)
